The values below come from US20210300960A1, “SUGAR DERIVATIVE OR SALT THEREOF, AND ANTIBACTERIAL AGENT OR ANTIBACTERIAL ACTIVITY ENHANCER USING SAME” (NAGOYA INSTITUTE OF TECHNOLOGY, priority 2016, published 2021).

One assay relates to Escherichia coli. The experiment in a line: Antimicrobial activity enhancing action: MIC of novobiocin or erythromycin alone or in combined use with cyclodextrin derivative, Escherichia coli. Type of assay: cell-based. On the procedure:
The evaluation was performed by a procedure as follows. Specifically, before testing, each of the bacteria were incubated on a minimal salt medium combined with common bacteria-use dried broth or polypeptone and reached a logarithmic growth phase. […] Some of existing antimicrobial substances fail to exert their inherent antimicrobial activities, due to the bacterial membrane serving as a physical barrier. In these cases, the substances offer high minimum inhibitory concentrations (MICs) necessary for inhibiting the bacterial growth and are considered as having no antimicrobial (antibacterial) activity. In particular, this allows Gram-negative bacteria, which have not only a cytoplasmic membrane, but also a bacterial outer membrane, to have remarkable drug resistance. […] Next, the compound (cyclodextrin derivative) (a) represented by Chemical Formula (11) was evaluated for antimicrobial activity enhancing action through a test performed by a procedure similar to that in Example 3.

The next assay concerns Pseudomonas aeruginosa. The experiment in a line: Antimicrobial activity enhancing action: MIC of novobiocin or erythromycin alone or in combined use with cyclodextrin derivative, Pseudomonas aeruginosa. The class given is cell-based. To be noted: cyclodextrin derivative 0 μg/mL (single use).

Where two headings read alike, the source gives them in different places.

Protocol for Pseudomonas aeruginosa: The evaluation was performed by a procedure as follows. Specifically, before testing, each of the bacteria were incubated on a minimal salt medium combined with common bacteria-use dried broth or polypeptone and reached a logarithmic growth phase. […] The testing incubation was performed at an initial bacterial concentration of 1×10^4 cells per milliliter.
The test was performed using bacteria Escherichia coli and Pseudomonas aeruginosa.

For `CC[C@H]1OC(=O)[C@H](C)[C@@H](O[C@H]2C[C@@](C)(OC)[C@@H](O)[C@H](C)O2)[C@H](C)[C@@H](O[C@@H]2O[C@H](C)C[C@H](N(C)C)[C@H]2O)[C@](C)(O)C[C@@H](C)C(=O)[C@H](C)[C@@H](O)[C@]1(C)O` [erythromycin], the MIC in the assay on Escherichia coli (read-out: Minimum inhibitory concentration (MIC) of erythromycin, cyclodextrin derivative 0 μg/mL (single use)) was found to be 64 µg/mL.
Turning to `CO[C@@H]1[C@@H](OC(N)=O)[C@@H](O)[C@H](Oc2ccc3c(O)c(NC(=O)c4ccc(O)c(CC=C(C)C)c4)c(=O)oc3c2C)OC1(C)C` [novobiocin], the MIC in the assay with Escherichia coli (cyclodextrin derivative 0 μg/mL (single use), read-out: Minimum inhibitory concentration (MIC) of novobiocin) is 128 µg/mL; with Pseudomonas aeruginosa (read-out: Minimum inhibitory concentration (MIC) of novobiocin), 2050 µg/mL. Also, the “Minimum inhibitory concentration (MIC) of novobiocin” value with Pseudomonas aeruginosa was found to be 2048 µg/mL.
